The values below come from ChEMBL document CHEMBL1151921 (Bioorg Med Chem, 2009).

Molecules are shown by their SMILES.

One test addresses D(2) dopamine receptor (Rattus norvegicus, UniProt P61169). The experiment in a line: Displacement of [3H]spiperone from rat dopamine D2L receptor expressed in HEK293 cells. It is filed as cell-based. On the technique in general: In a radioligand displacement assay an active substance lowers the binding of a labelled ligand.
The target of another test is D(3) dopamine receptor (Rattus norvegicus, UniProt P19020). The test can be described thus: biochemical.
Test [1] deals with D(2) dopamine receptor (Homo sapiens) (UniProt P14416). The experiment in a line: Activity at human dopamine D2L receptor expressed in CHO cells assessed as stimulation of [35S]GTPgammaS binding relative to dopamine. In kind it is functional, cell-based.
Sequence of D(2) dopamine receptor (Homo sapiens) (P14416 whole entry): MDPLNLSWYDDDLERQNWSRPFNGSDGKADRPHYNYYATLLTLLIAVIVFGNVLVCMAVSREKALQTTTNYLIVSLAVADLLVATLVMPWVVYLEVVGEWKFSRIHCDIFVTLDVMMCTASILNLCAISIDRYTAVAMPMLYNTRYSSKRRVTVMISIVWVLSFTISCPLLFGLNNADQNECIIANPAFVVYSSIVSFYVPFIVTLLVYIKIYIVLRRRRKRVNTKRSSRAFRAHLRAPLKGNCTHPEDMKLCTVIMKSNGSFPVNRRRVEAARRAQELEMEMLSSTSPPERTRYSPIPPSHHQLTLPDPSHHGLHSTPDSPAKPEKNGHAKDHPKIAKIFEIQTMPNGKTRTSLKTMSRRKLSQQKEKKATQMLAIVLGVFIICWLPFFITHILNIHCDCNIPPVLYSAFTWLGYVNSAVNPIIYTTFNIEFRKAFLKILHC

Sequence of D(2) dopamine receptor (P61169 whole entry): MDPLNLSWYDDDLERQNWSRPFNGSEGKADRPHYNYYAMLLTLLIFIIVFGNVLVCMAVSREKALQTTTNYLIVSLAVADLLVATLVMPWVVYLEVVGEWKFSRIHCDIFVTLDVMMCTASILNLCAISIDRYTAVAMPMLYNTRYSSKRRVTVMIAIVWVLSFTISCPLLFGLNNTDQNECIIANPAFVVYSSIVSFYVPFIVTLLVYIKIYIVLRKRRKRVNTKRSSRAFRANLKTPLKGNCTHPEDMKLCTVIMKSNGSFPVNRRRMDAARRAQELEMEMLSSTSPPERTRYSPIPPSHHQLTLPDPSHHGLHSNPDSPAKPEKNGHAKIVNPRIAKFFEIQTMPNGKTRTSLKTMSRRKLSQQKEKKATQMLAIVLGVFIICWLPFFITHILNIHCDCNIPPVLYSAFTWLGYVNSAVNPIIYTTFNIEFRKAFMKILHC
Sequence of D(3) dopamine receptor (P19020 whole entry): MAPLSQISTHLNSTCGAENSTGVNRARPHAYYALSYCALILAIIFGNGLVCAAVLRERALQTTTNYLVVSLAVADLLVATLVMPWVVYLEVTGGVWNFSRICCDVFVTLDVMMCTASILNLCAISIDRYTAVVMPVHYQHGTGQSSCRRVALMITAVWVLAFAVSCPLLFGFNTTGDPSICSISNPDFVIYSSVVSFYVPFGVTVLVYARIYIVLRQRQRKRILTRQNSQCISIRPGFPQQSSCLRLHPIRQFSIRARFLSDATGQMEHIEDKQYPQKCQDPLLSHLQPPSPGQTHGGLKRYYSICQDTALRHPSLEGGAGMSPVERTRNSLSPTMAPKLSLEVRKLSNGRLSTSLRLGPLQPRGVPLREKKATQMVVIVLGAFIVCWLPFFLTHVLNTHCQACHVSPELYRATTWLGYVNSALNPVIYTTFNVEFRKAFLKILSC

What is called Ki is a measure of affinity in units of concentration, obtained from inhibition or displacement. A higher Ki goes with a looser hold on the target. As to `CCCN(CCN1CCN(Cc2cc3ccccc3[nH]2)CC1)C1CCc2ccc(O)cc2C1` (stereo not drawn), the Ki at D(2) dopamine receptor was found to be 100 nM; on D(3) dopamine receptor, 4.82 nM.

`CCCN(CCN1CCN(C(=O)c2cc3ccccc3o2)CC1)C1CCc2c(O)cccc2C1` (stereo not drawn): the Ki at D(2) dopamine receptor is 132 nM; at D(3) dopamine receptor, 5.23 nM.

`CCCN(CCN1CCN(c2ccc(-c3ccccc3)cc2)CC1)[C@H]1CCc2nc(N)sc2C1` showed a Ki on D(2) dopamine receptor of 264 nM.

One may read the Emax as the size of the effect at its maximum, as opposed to the concentration needed. `CCCN(CCN1CCN(C(=O)c2ccc3[nH]ccc3c2)CC1)[C@H]1CCc2c(O)cccc2C1`: the maximal effect (Emax) in test [1] worked out at 80%.

`CCCN(CCN1CCN(C(=O)c2ccc3[nH]ccc3c2)CC1)C1CCc2ccc(O)cc2C1` (stereo not drawn) yielded a Ki at D(2) dopamine receptor of 65.9 nM.

In the case of `CCCN(CCC)C1CCc2c(O)cccc2C1` (stereo not drawn), in test [1], the Emax stood at 77.8%.
